The source of these data is patent US20060205826A1, “Method of using carotenoids in the prevention of cognitive decline and for other neuroprotection functions” (priority 2005, published 2006).

Holding throughout (type): in vivo
The subject of one assay is alloxan diabetic mice. Nature of the assay: Hyperglycemic status (blood glucose) of alloxan diabetic mice. The following applies: for glycemia: diabetic mice. The procedure:
(§1) Male albino mice were used throughout the study, housed in a environmentally regulated room on a dark-light cycle of 12 hours with free access to food and water. Principles of laboratory animal care (NIH publication no. 85-23, revised 1985) were followed, as well as specific Spanish regulations. Animals were made diabetic with a single subcutaneous injection of 200 mg alloxan/kg body weight (66 mg/ml) in 0.1 M citrate buffer, pH 4.5, at day 0 of the experiment. Control mice were injected with the same volume of vehicle also at day 0 of the experiment. Mice were identified as diabetic on the basis of blood glucose levels (higher than 16 mM at least 4 days after alloxan treatment). Animals were divided into subgroups as required by the experiment (control, control+lutein, diabetic, diabetic+lutein, diabetic+insulin, diabetic+insulin+lutein). […] Insulin treated animals were injected daily with 500 mU/g body weight since day 4 until the end of the experiment. Mice were killed by cervical dislocation on day 14, and hippocampus and retina were removed and homogenized in pre-chilled 0.2 M potassium phosphate buffer, pH 7.0. These homogenates were used to assay protein, GPx activity and MDA and GSH concentrations. Samples were kept frozen (−80° C.) until biochemical assays were performed. Blood was taken from the tail vein daily to assay blood glucose levels. Glycated hemoglobin was determined in blood samples obtained by heart puncture immediately before killing the animals.

The next assay relates to GPx activity. The experiment in a line: GPx activity in eye and hippocampus homogenate of diabetic mice. The procedure:
as §1, with “animals. GPx activity was assayed as reported by Lawrence et al. (1978) towards hydrogen peroxide. The disappearance of NADPH was followed spectrophotometrically at 340 nm. The reaction mixture consisted of 240 mU/ml of glutathione disulfide reductase, 1 mM GSH, 0.15 mM NADPH in 0.1 M potassium phosphate buffer, pH 7.0, containing 1 mM EDTA and 1 mM sodium azide; 50 μl sample were added to this mixture and allowed to equilibrate at 37° C. for 3 min. reaction was started by the addition of 1.5 mM hydrogen peroxide to adjust the final volume of the assay mixture to 1 ml.” for “animals.”

The next assay has as its system GSH. The experiment in a line: GSH content in hippocampus homogenate of diabetic mice. The following applies: lutein 0.2 mg/kg p.o. or insulin 500 mU/g s.c. on days 4-13. The procedure: Male albino mice were used throughout the study, housed in a environmentally regulated room on a dark-light cycle of 12 hours with free access to food and water. Principles of laboratory animal care (NIH publication no. 85-23, revised 1985) were followed, as well as specific Spanish regulations. Animals were made diabetic with a single subcutaneous injection of 200 mg alloxan/kg body weight (66 mg/ml) in 0.1 M citrate buffer, pH 4.5, at day 0 of the experiment. Control mice were injected with the same volume of vehicle also at day 0 of the experiment.
Mice were identified as diabetic on the basis of blood glucose levels (higher than 16 mM at least 4 days after alloxan treatment). Animals were divided into subgroups as required by the experiment (control, control+lutein, diabetic, diabetic+lutein, diabetic+insulin, diabetic+insulin+lutein). Lutein was administered daily at a dose of 0.2 mg/kg p.o since day 4 after alloxan or citrate buffer injection until the end of the experiment. […] Glycated hemoglobin was determined in blood samples obtained by heart puncture immediately before killing the animals.
The GSH content of eye homogenate was quatitated by the method of Reed et al. (Reed et al., 1980). […] These products are quickly separated by HPLC which allows the quantification of nanomolars levels of GSH.

Turning to `CC1=C[C@H](O)CC(C)(C)[C@H]1/C=C/C(C)=C/C=C/C(C)=C/C=C/C=C(C)/C=C/C=C(C)/C=C/C1=C(C)C[C@@H](O)CC1(C)C` [Lutein], the hyperglycemic status entry in the assay on alloxan diabetic mice (alloxan diabetic mice, fourteen days after alloxan injection) is on record as “did not alter”. Further, the glycemia entry with alloxan diabetic mice (lutein 0.2 mg/kg p.o. on days 4-13 (hippocampus section)) and in the assay on alloxan diabetic mice (lutein 100 mg/kg p.o. on days 4-13 (retina section)) was “no effect” in each case. For the same molecule, in the assay with GPx activity (eye homogenate without lens, lutein 100 mg/kg p.o. or insulin 500 mU/g s.c. on days 4-13), the “retinal GPx activity” value was “protected”. Further, the “GPx activity in hippocampus homogenate” value with GPx activity (lutein 0.2 mg/kg p.o. or insulin 500 mU/g s.c. on days 4-13) is given as “restored”. For the same molecule, in the assay with GSH, the “GSH content in hippocampus homogenate” value was “restored”.
